# Assay results from patent publication US6737383B1, “Herbicidal oxadiazolidines” (priority 1999, dated 2004).
# What was measured:
# [1] = test system: purple nutsedge; test: Test B pre/postemergence purple nutsedge; type: in vivo, Cyperus rotundus
# Procedure, shortened: (§1)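 Test chemicals in a non-phytotoxic solvent mixture with surfactant were sprayed preemergence onto planted seeds and postemergence onto plants 2 to 18 cm tall (1- to 4-leaf stage). After twelve to sixteen days in a greenhouse, injury was visually rated against untreated controls from 0 (no effect) to 10 (complete control).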
# [2] = test system: rice; test: Test B flood test rice; type: in vivo, Oryza sativa
# Procedure, shortened: (§2)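 Plants were grown to the 2-leaf stage before treatment with test chemical, then held in a greenhouse for twelve to sixteen days. Injury was visually rated against untreated controls on a 0–10 scale, where 0 is no effect and 10 is complete control.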
# [3] = test system: sugar beet; test: Test B pre/postemergence sugar beet; type: in vivo, Beta vulgaris
# Procedure, shortened: as §1
# [4] = test system: cocklebur; test: Test B pre/postemergence cocklebur; type: in vivo, Xanthium strumarium
# Procedure, shortened: as §1
# [5] = test system: giant foxtail; test: Test B pre/postemergence giant foxtail; type: in vivo, Setaria faberii
# Procedure, shortened: as §1
# [6] = test system: corn; test: Test B pre/postemergence corn; type: in vivo, Zea mays
# Procedure, shortened: as §1
# [7] = test system: rape; test: Test B pre/postemergence rape; type: in vivo, Brassica napus
# Procedure, shortened: as §1
# [8] = test system: smallflower flatsedge; test: Test B flood test smallflower flatsedge; type: in vivo, Cyperus difformis
# Procedure, shortened: as §2
# [9] = test system: wild oat; test: Test B pre/postemergence wild oat; type: in vivo, Avena fatua
# Procedure, shortened: as §1
# [10] = test system: pigweed; test: Test B pre/postemergence pigweed; type: in vivo, Amaranthus retroflexus
# Procedure, shortened: as §1
# [11] = test system: bamyardgrass; test: Test B flood test barnyardgrass; type: in vivo, Echinochloa crus-galli
# Procedure, shortened: as §2
# [12] = test system: morningglory; test: Test B pre/postemergence morningglory; type: in vivo, Ipomoea hederacea
# Procedure, shortened: as §1
# [13] = test system: duck salad; test: Test B flood test duck salad; type: in vivo, Heteranthera limosa
# Procedure, shortened: as §2
# [14] = test system: surinam grass; test: Test B pre/postemergence surinam grass; type: in vivo, Brachiaria decumbens
# Procedure, shortened: as §1
# [15] = test system: crabgrass; test: Test B pre/postemergence crabgrass; type: in vivo, Digitaria sanguinalis
# Procedure, shortened: as §1
# [16] = test system: wheat; test: Test B pre/postemergence wheat; type: in vivo, Triticum aestivum
# Procedure, shortened: as §1
# [17] = Postemergence, Rate 62 g/ha, scale 0 to 10, 0 is no effect, 10 is complete control
# [18] = Postemergence, Rate 250 g/ha, scale 0 to 10, 0 no effect, 10 complete control
# [19] = Preemergence, Rate 62 g/ha, scale 0 to 10 (0 no effect, 10 complete control)
# [20] = Preemergence, Rate 125 g/ha, scale 0 to 10 (0 no effect, 10 complete control)
# [21] = Preemergence, Rate 250 g/ha, scale of 0 to 10 where 0 is no effect and 10 is complete control
# [22] = Preemergence, Rate 500 g/ha, scale 0 (no effect) to 10 (complete control)
# [23] = Rate 125 g/ha, Postemergence, scale 0 to 10, 0 no effect, 10 complete control
# [24] = Rate 500 g/ha, Postemergence, scale 0 to 10, 0 no effect, 10 complete control
# [25] = Rate 125 g/ha, Postemergence section (flood test species), scale 0 to 10, 0 no effect, 10 complete control
# [26] = Rate 250 g/ha, headed Pre-emergence (flood test species), scale 0 to 10 (0 no effect, 10 complete control)
# [27] = Rate 500 g/ha, headed Pre-emergence (flood test species), scale 0 to 10 (0 no effect, 10 complete control)
# [28] = Rate 500 g/ha, listed under Postemergence (flood test species), scale 0 to 10, 0 no effect, 10 complete control
# [29] = Rate 1000 g/ha, Pre-emergence (as headed), scale 0 to 10
# [30] = Rate 2000 g/ha, Pre-emergence (as headed), scale 0 to 10
# [31] = flood test, listed under Postemergence, Rate 250 g/ha, scale 0 to 10, 0 no effect, 10 complete control
structure (smiles),measurement,setting,value
CC(C)N(C(=O)n1oc(=O)n(Cc2ccccc2)c1=O)c1ccc(F)cc1 [Compound 78],Nutsedge plant response rating,[1]; [17],0
same,Nutsedge plant response rating,[1]; [18],0
same,Nutsedge plant response rating,[1]; [19],0
same,"Plant response rating, Nutsedge",[1]; [20],0
same,"Plant response rating, Nutsedge",[1]; [21],0
same,Nutsedge plant response rating,[1]; [22],0
same,Nutsedge plant response rating,[1]; [23],0
same,Nutsedge plant response rating,[1]; [24],0
same,Rice plant response rating,[2]; [17],0
same,Rice plant response rating,[2]; [25],0
same,Rice plant response rating,[2]; [26],0
same,"Plant response rating, Rice",[2]; [27],0
same,Rice plant response rating,[2]; [28],2
same,Rice plant response rating,[2]; [29],0
same,Rice plant response rating,[2]; [30],0
same,Rice plant response rating,[2]; [31],0
same,Sugarbeets plant response rating,[3]; [17],2
same,Sugarbeets plant response rating,[3]; [18],4
same,Sugarbeets plant response rating,[3]; [19],0
same,"Plant response rating, Sugarbeets",[3]; [20],0
same,"Plant response rating, Sugarbeets",[3]; [21],5
same,Sugarbeets plant response rating,[3]; [22],5
same,Sugarbeets plant response rating,[3]; [23],4
same,Sugarbeets plant response rating,[3]; [24],7
same,Cocklebur plant response rating,[4]; [18],2
same,Cocklebur plant response rating,[4]; [19],0
same,"Plant response rating, Cocklebur",[4]; [20],0
same,"Plant response rating, Cocklebur",[4]; [21],0
same,Cocklebur plant response rating,[4]; [22],0
same,Cocklebur plant response rating,[4]; [23],2
same,Cocklebur plant response rating,[4]; [24],3
same,Giant foxtail plant response rating,[5]; [17],0
same,Giant foxtail plant response rating,[5]; [18],3
same,Giant foxtail plant response rating,[5]; [19],8
same,"Plant response rating, Giant foxtail",[5]; [20],8
same,"Plant response rating, Giant foxtail",[5]; [21],9
same,Giant foxtail plant response rating,[5]; [22],9
same,Giant foxtail plant response rating,[5]; [23],3
same,Giant foxtail plant response rating,[5]; [24],4
same,Corn plant response rating,[6]; [17],0
same,Corn plant response rating,[6]; [18],0
same,Corn plant response rating,[6]; [19],0
same,"Plant response rating, Corn",[6]; [20],0
same,"Plant response rating, Corn",[6]; [21],0
same,Corn plant response rating,[6]; [22],0
same,Corn plant response rating,[6]; [23],0
same,Corn plant response rating,[6]; [24],0
same,Rape plant response rating,[7]; [17],0
same,Rape plant response rating,[7]; [18],2
same,Rape plant response rating,[7]; [19],0
same,"Plant response rating, Rape",[7]; [20],0
same,"Plant response rating, Rape",[7]; [21],5
same,Rape plant response rating,[7]; [22],5
same,Rape plant response rating,[7]; [23],0
same,Rape plant response rating,[7]; [24],4
same,S. Flatsedge plant response rating,[8]; [17],0
same,S. Flatsedge plant response rating,"[8]; Pre-emergence, Rate 1000 g/ha, scale 0 to 10 (0 no effect, 10 complete control)",0
same,S. Flatsedge plant response rating,[8]; [25],0
same,S. Flatsedge plant response rating,[8]; [26],0
same,"Plant response rating, S. Flatsedge",[8]; [27],0
same,S. Flatsedge plant response rating,[8]; [28],4
same,S. Flatsedge plant response rating,[8]; [30],7
same,S. Flatsedge plant response rating,[8]; [31],0
same,Wild oats plant response rating,[9]; [17],0
same,Wild oats plant response rating,[9]; [18],0
same,Wild oats plant response rating,[9]; [19],0
same,"Plant response rating, Wild oats",[9]; [20],2
same,"Plant response rating, Wild oats",[9]; [21],6
same,Wild oats plant response rating,[9]; [22],6
same,Wild oats plant response rating,[9]; [23],0
same,Wild oats plant response rating,[9]; [24],2
same,Redroot pigweed plant response rating,[10]; [17],2
same,Redroot pigweed plant response rating,[10]; [18],3
same,Redroot pigweed plant response rating,[10]; [19],0
same,"Plant response rating, Redroot pigweed",[10]; [20],0
same,"Plant response rating, Redroot pigweed",[10]; [21],6
same,Redroot pigweed plant response rating,[10]; [22],6
same,Redroot pigweed plant response rating,[10]; [23],3
same,Redroot pigweed plant response rating,[10]; [24],6
same,Barnyardgrass plant response rating,[11]; [17],0
same,Barnyardgrass plant response rating,[11]; [25],0
same,Barnyardgrass plant response rating,[11]; [26],0
same,"Plant response rating, Barnyardgrass",[11]; [27],0
same,Barnyardgrass plant response rating,[11]; [28],7
same,Barnyardgrass plant response rating,[11]; [29],0
same,Barnyardgrass plant response rating,"[11]; Rate 2000 g/ha, Pre-emergence (as headed), scale 0 to 10, 0 no effect, 10 complete control",3
same,Barnyardgrass plant response rating,[11]; [31],3
same,Morningglory plant response rating,[12]; [17],7
same,Morningglory plant response rating,[12]; [18],10
same,Morningglory plant response rating,[12]; [19],0
same,"Plant response rating, Morningglory",[12]; [20],0
same,"Plant response rating, Morningglory",[12]; [21],0
same,Morningglory plant response rating,[12]; [22],0
same,Morningglory plant response rating,[12]; [23],8
same,Morningglory plant response rating,[12]; [24],10
same,Ducksalad plant response rating,[13]; [17],0
same,Ducksalad plant response rating,[13]; [25],0
same,Ducksalad plant response rating,[13]; [26],0
same,"Plant response rating, Ducksalad",[13]; [27],0
same,Ducksalad plant response rating,[13]; [28],0
same,Ducksalad plant response rating,[13]; [29],0
same,Ducksalad plant response rating,[13]; [30],0
same,Ducksalad plant response rating,[13]; [31],0
same,B. signalgrass plant response rating,[14]; [17],0
same,B. signalgrass plant response rating,[14]; [18],4
same,B. signalgrass plant response rating,[14]; [19],0
same,"Plant response rating, B. signalgrass",[14]; [20],1
same,"Plant response rating, B. signalgrass",[14]; [21],5
same,B. signalgrass plant response rating,[14]; [22],9
same,B. signalgrass plant response rating,[14]; [23],0
same,B. signalgrass plant response rating,"[14]; Rate 500 g/ha, Postemergence, scale of 0 to 10 where 0 is no effect and 10 is complete control",6
same,Crabgrass plant response rating,[15]; [17],0
same,Crabgrass plant response rating,[15]; [18],5
same,Crabgrass plant response rating,[15]; [19],7
same,"Plant response rating, Crabgrass",[15]; [20],9
same,"Plant response rating, Crabgrass",[15]; [21],9
same,Crabgrass plant response rating,[15]; [22],10
same,Crabgrass plant response rating,[15]; [23],2
same,Crabgrass plant response rating,[15]; [24],9
same,Wheat plant response rating,[16]; [17],0
same,Wheat plant response rating,[16]; [18],0
same,Wheat plant response rating,[16]; [19],0
same,"Plant response rating, Wheat",[16]; [20],0
same,"Plant response rating, Wheat",[16]; [21],3
same,Wheat plant response rating,[16]; [22],3
same,Wheat plant response rating,[16]; [23],0
same,Wheat plant response rating,[16]; [24],0
